Measurements: patent US6592894B1, “Hydrogel-isolated cochleate formulations, process of preparation and their use for the delivery of biologically relevant molecules” (BioDelivery Sciences International, Inc., priority 1999, dated 2003)

Tested on: Candida albicans
Assay: Fungicidal effect, ratio of colony forming units to total cell number
Type: cell-based
Conditions: 0.625 μg AmB/ml, after 30 hours of incubation
Procedure: Aliquots of yeast cells (50 μl) were removed from the 96 well plates and serially diluted (up to 1:10000 for plating onto agar plates) and counted using a hemocytometer. Fifty μl of the diluted yeast cells were plated onto YPD agar plates and incubated for 24 hours at 37° C. Yeast colonies were counted using a BioRad Fluor-S Multi-Imager equipped with Quanitity One™ software.
Yeast cells treated with AmBisome, AmB/DMSO and AmB/cochleates (0.625 μg AmB/ml) were examined for the ratio of colony forming units to total cell number after 30 hours of incubation. […] The AmBisome was not as effective, resulting in 52% yeast viability (FIG. 7).

`C[C@@H]1[C@H](O)[C@@H](C)/C=C/C=C/C=C/C=C/C=C/C=C/C=C/[C@H](O[C@@H]2O[C@H](C)[C@@H](O)[C@H](N)[C@@H]2O)C[C@@H]2O[C@](O)(C[C@@H](O)C[C@@H](O)[C@H](O)CC[C@@H](O)C[C@@H](O)CC(=O)O[C@H]1C)C[C@H](O)[C@H]2C(=O)O` [AmB/DMSO, Amphotericin B] was tested, and the “yeast viability (ratio of colony forming units to total cell number)” value was 12%.
